Broadly, the MIC is the lowest concentration found to suppress growth.

The record followed here is patent US5168100A, “HP530 compounds and process for preparing the same” (Sapporo Breweries Limited, priority 1990, dated 1992).

Structures are written as SMILES. Converted amounts (≈) assume the structure as drawn. Where only a bound is given, the exact number is not on record here.

The test system of the first data set is Staphylococcus epidermidis JCM2414. As to the kind of experiment: Antimicrobial activity (MIC), Staphylococcus epidermidis. The format is cell-based.
Conditions: not given
From the text: (§1) The minimum inhibitory concentrations (MIC's) of the HP530 compounds and their derivatives of the invention against bacteria and fungi are shown in Table 2.
Compound `CC=C(C)c1cc(=O)c2c(C)cc3c(c2o1)C(=O)c1c(ccc(C2CC(C)(N(C)C)C(OC(C)=O)C(C)O2)c1O)C3=O` (stereo not drawn) [HP530G] displayed an MIC of 25 µg/mL (≈ 43.6 µM).

The subject of the next data set is Xanthomonas maltophilia JCM1975. The data set can be described thus: Antimicrobial activity (MIC), Xanthomonas maltophilia. Type of data set: cell-based. The note with it: Stenotrophomonas maltophilia.
Text: as §1
In turn, `CC=C(C)c1cc(=O)c2c(C)cc3c(c2o1)C(=O)c1c(ccc(C2CC(C)(N(C)C)C(OC(C)=O)C(C)O2)c1O)C3=O` (stereo not drawn) [HP530G] displayed an MIC of over 100 µg/mL.

The test system of a further data set is Bacillus subtilis H17Rec^+. As to the kind of experiment: Antimicrobial activity (MIC), Bacillus subtilis H17Rec^+. Type of data set: cell-based.
Conditions: not given
Text: as §1
As to `CC=C(C)c1cc(=O)c2c(C)cc3c(c2o1)C(=O)c1c(ccc(C2CC(C)(N(C)C)C(OC(C)=O)C(C)O2)c1O)C3=O` (stereo not drawn) [HP530G], the MIC amounted to 100 µg/mL (≈ 174 µM).

The next data set concerns Klebsiella pneumoniae JCM1662. As to the kind of experiment: Antimicrobial activity (MIC), Klebsiella pneumoniae. Type of data set: cell-based.
Conditions: not given
Text: as §1
`CC=C(C)c1cc(=O)c2c(C)cc3c(c2o1)C(=O)c1c(ccc(C2CC(C)(N(C)C)C(OC(C)=O)C(C)O2)c1O)C3=O` (stereo not drawn) [HP530G] gave an MIC of over 100 µg/mL.

In the next data set the test system is Escherichia coli JCM1649. As to the kind of experiment: Antimicrobial activity (MIC), Escherichia coli. Type of data set: cell-based.
Conditions: not given
Text: as §1
Consider `CC=C(C)c1cc(=O)c2c(C)cc3c(c2o1)C(=O)c1c(ccc(C2CC(C)(N(C)C)C(OC(C)=O)C(C)O2)c1O)C3=O` (stereo not drawn) [HP530G], for which the MIC was over 100 µg/mL.

The subject of the next data set is Micrococcus luteus JCM1464. The data set can be described thus: Antimicrobial activity (MIC), Micrococcus luteus. Type of data set: cell-based.
Conditions: not given
Text: as §1
Take `CC=C(C)c1cc(=O)c2c(C)cc3c(c2o1)C(=O)c1c(ccc(C2CC(C)(N(C)C)C(OC(C)=O)C(C)O2)c1O)C3=O` (stereo not drawn) [HP530G]: the lowest concentration to inhibit growth (MIC) was 12.5 µg/mL (≈ 21.8 µM).

The subject of the next data set is Staphylococcus aureus JCM2151. The data set can be described thus: Antimicrobial activity (MIC), Staphylococcus aureus. Type of data set: cell-based.
Conditions: not given
Text: as §1
`CC=C(C)c1cc(=O)c2c(C)cc3c(c2o1)C(=O)c1c(ccc(C2CC(C)(N(C)C)C(OC(C)=O)C(C)O2)c1O)C3=O` (stereo not drawn) [HP530G]: it took 50 µg/mL (≈ 87.2 µM) to inhibit growth (MIC).

The subject of a further data set is Saccharomyces cerevisiae JCM1499. The data set can be described thus: Antimicrobial activity (MIC), Saccharomyces cerevisiae. The format is cell-based.
Conditions: not given
Text: as §1
For `CC=C(C)c1cc(=O)c2c(C)cc3c(c2o1)C(=O)c1c(ccc(C2CC(C)(N(C)C)C(OC(C)=O)C(C)O2)c1O)C3=O` (stereo not drawn) [HP530G], the MIC was over 100 µg/mL.

Another data set relates to mouse fibrosarcoma Meth-A cell line. The data set can be described thus: Antitumor activity, increase in life span of CDF1 mice inoculated with Meth-A cells. The format is in vivo. The conditions noted are these: 2.5 mg/kg i.p. once a day, day 1-4. From the text: 1) CDF1 mice were inoculated intraperitoneally with 1×10^6 cells of mouse fibrosarcoma Meth-A cell line on day 0. HP530 compounds and their derivatives dissolved in a physiological salt solution were administrated intraperitoneally once a day on day 1-4. Increase in life span is represented by the percentage of the ratio of the mean number of surviving days (T) of the treated groups of mice to the mean number of surviving days (C) of the untreated groups of mice.
`CC=C(C)c1cc(=O)c2c(C)cc3c(c2o1)C(=O)c1c(ccc(C2CC(C)(N(C)C)C(OC(C)=O)C(C)O2)c1O)C3=O` (stereo not drawn) [HP530G]: the “Antitumor Activity T/C” value is on record as 112%.

Staying with this data set, now noted: 5.0 mg/kg i.p. once a day, day 1-4.
Turning to `CC=C(C)c1cc(=O)c2c(C)cc3c(c2o1)C(=O)c1c(ccc(C2CC(C)(N(C)C)C(OC(C)=O)C(C)O2)c1O)C3=O` (stereo not drawn) [HP530G], the “Antitumor Activity T/C” value is recorded as 123%.

The data set is the same for the next values; noted with them: 10.0 mg/kg i.p. once a day, day 1-4.
Take `CC=C(C)c1cc(=O)c2c(C)cc3c(c2o1)C(=O)c1c(ccc(C2CC(C)(N(C)C)C(OC(C)=O)C(C)O2)c1O)C3=O` (stereo not drawn) [HP530G]: the “Antitumor Activity T/C” value is listed as 115%.

The data set is the same for the next values; noted with them: 20.0 mg/kg i.p. once a day, day 1-4.
As to `CC=C(C)c1cc(=O)c2c(C)cc3c(c2o1)C(=O)c1c(ccc(C2CC(C)(N(C)C)C(OC(C)=O)C(C)O2)c1O)C3=O` (stereo not drawn) [HP530G], the “Antitumor Activity T/C” value was 123%.

A further data set relates to Salmonella typhimurium TA1535. As to the kind of experiment: Antimicrobial activity (MIC), Salmonella typhimurium. Type of data set: cell-based. The note with it: Salmonella enterica.
Text: as §1
`CC=C(C)c1cc(=O)c2c(C)cc3c(c2o1)C(=O)c1c(ccc(C2CC(C)(N(C)C)C(OC(C)=O)C(C)O2)c1O)C3=O` (stereo not drawn) [HP530G] returned an MIC of 100 µg/mL (≈ 174 µM).

A further data set concerns CDF1 mice. As to the kind of experiment: Acute toxicity in CDF1 mice. Type of data set: in vivo, mouse. The conditions noted are these: 20 mg/kg, intraperitoneal, three CDF1 mice.
With `CC=C(C)c1cc(=O)c2c(C)cc3c(c2o1)C(=O)c1c(ccc(C2CC(C)(N(C)C)C(OC(C)=O)C(C)O2)c1O)C3=O` (stereo not drawn) [HP530G], the Acute toxicity result was “no toxicity”.

A further data set relates to Proteus vulgaris JCM1668. The data set can be described thus: Antimicrobial activity (MIC), Proteus vulgaris. The format is cell-based.
Conditions: not given
Text: as §1
With `CC=C(C)c1cc(=O)c2c(C)cc3c(c2o1)C(=O)c1c(ccc(C2CC(C)(N(C)C)C(OC(C)=O)C(C)O2)c1O)C3=O` (stereo not drawn) [HP530G], the MIC is over 100 µg/mL.

The next data set concerns Candida albicans JCM1542. The data set can be described thus: Antimicrobial activity (MIC), Candida albicans.
Conditions: not given
Type of data set: cell-based.
Text: as §1
Regarding `CC=C(C)c1cc(=O)c2c(C)cc3c(c2o1)C(=O)c1c(ccc(C2CC(C)(N(C)C)C(OC(C)=O)C(C)O2)c1O)C3=O` (stereo not drawn) [HP530G], the MIC was over 100 µg/mL.

Tested on in another data set: not listed separately
As to the kind of experiment: Solubility. The note with it: ethyl acetate, acetone, n-hexane.
As for `CC=C(C)c1cc(=O)c2c(C)cc3c(c2o1)C(=O)c1c(ccc(C2CC(C)(N(C)C)C(OC(C)=O)C(C)O2)c1O)C3=O` (stereo not drawn) [HP530G], the Solubility entry was “hardly soluble in ethyl acetate, acetone and n-hexane”.

Still in this data set, the particulars now being: solvents in which soluble (acidic water, organic solvents).
Regarding `CC=C(C)c1cc(=O)c2c(C)cc3c(c2o1)C(=O)c1c(ccc(C2CC(C)(N(C)C)C(OC(C)=O)C(C)O2)c1O)C3=O` (stereo not drawn) [HP530G], the Solubility result was “Soluble in acidic water, methanol, chloroform and benzene”.

Still in this data set, the particulars now being: water.
Consider `CC=C(C)c1cc(=O)c2c(C)cc3c(c2o1)C(=O)c1c(ccc(C2CC(C)(N(C)C)C(OC(C)=O)C(C)O2)c1O)C3=O` (stereo not drawn) [HP530G], for which the Solubility result is reported as “insoluble in water”.

A further data set has as its system W98 cell line. The data set can be described thus: Cytotoxicity (IC100) against W98 cell line. The format is cell-based. The conditions noted are these: Homo sapiens; W98 cells, final 10% methanol solutions; read-out: IC100 (100% growth inhibiting concentration). How it is done: 2) Cytotoxicity (IC100) against W98 cell line obtained by converting the lung cells of a human emryo by an SV40 virus was examined in the following way. When the HP530 compounds and their derivatives dissolved in methanol were added to culture solutions in such a manner that the culture solutions were prepared final 10% methanol solutions, the cytotoxicity of the HP530 compounds and their derivatives against the growth of the W98 cells in the culture solution was measured as 100% growth inhibiting concentration (IC100).
For the compound `CC=C(C)c1cc(=O)c2c(C)cc3c(c2o1)C(=O)c1c(ccc(C2CC(C)(N(C)C)C(OC(C)=O)C(C)O2)c1O)C3=O` (stereo not drawn) [HP530G], the IC100 came to 0.1 µg/mL.

The next data set deals with Bacillus subtilis M45Rec^-. The data set can be described thus: Antimicrobial activity (MIC), Bacillus subtilis M45Rec^-. The format is cell-based.
Conditions: not given
Text: as §1
`CC=C(C)c1cc(=O)c2c(C)cc3c(c2o1)C(=O)c1c(ccc(C2CC(C)(N(C)C)C(OC(C)=O)C(C)O2)c1O)C3=O` (stereo not drawn) [HP530G] registered an MIC of 3.2 µg/mL (≈ 5.58 µM).
